The source of these data is US9862724B2, “Pyrazolo[1,5-a]pyrimidine-based compounds, compositions comprising them, and methods of their use” (LEXICON PHARMACEUTICALS, INC., priority 2013, dated 2018).

For assay [1], the target named is T1, AAK1 (full-length human protein) (Homo sapiens, UniProt Q2M2I8).
T1 construct: NP_055726.2
The experiment in a line: P81 filter plate assay. The assay is classed as biochemical. The following applies: 0.2 nM 2x AAK1, Mu2 substrate, 33P-ATP. On the procedure:
Compounds were serially diluted into a Labcyte LDV plate (Labcyte, cat# LP-0200) using a Mutiprobe (PerkinElmer) and Biomek FX (Beckman Coulter) so that the highest compound concentration was at 96 μM. Compounds were then pinged (75 nL per well) into a Greiner 384-well reaction plate (Greiner, #781076) using an ECHO 550 Liquid Handler (Labcyte). A total of 12 μl reaction buffer (IMAP buffer containing Tween and DTT, from Molecular Devices) was then added to each well of columns 1 and 13 for the negative controls and 12 μl of 2×AAK1 (0.2 nM full-length human protein, NCBI accession no. NP_055726.2) was added to the remaining wells. Enzyme was then pre-incubated with compound for 10 minutes at RT. Reactions were initiated upon Minitrak (PerkinElmer) addition of 12 μl substrate mix containing 2×Mu2 (0.2 μM, full length human protein), 2× cold ATP (2 μM), and 1.3 μCi of hot ^33P-ATP. Reactions proceeded for one hour at RT. Meanwhile, Millipore 384-well P81 filter plates (Millipore, catalog # MZPHN0W10) were placed on a plate washer (Zoom ZW, from Titertek) and pre-wet with 50 μl […] phosphoric acid. Kinase reactions were then stopped upon addition of 24 μl of 2% phosphoric acid to each well and the Minitrak was then used to transfer 40 μl from each well into the pre-wet Millipore 384-well P81 filter plates. Reaction mixtures were incubated for 10 minutes at room temperature in the P81 plates, followed by washing five times with 100 μl/well of 1% phosphoric acid using the Zoom filter washer. The bottom of each filter plate was sealed followed by addition of 20 μl Microscint 40 to each well, sealing the top of the plates with Flashplate cover, and then waiting one hour until reading on the TopCount (PerkinElmer).

In another assay the target is T2, AAK1 (Homo sapiens, UniProt Q2M2I8).
T2 construct: expressed in transfected cells; host or cells: HEK293F
T2 sequence (Q2M2I8 1-863 isoform Q2M2I8-2): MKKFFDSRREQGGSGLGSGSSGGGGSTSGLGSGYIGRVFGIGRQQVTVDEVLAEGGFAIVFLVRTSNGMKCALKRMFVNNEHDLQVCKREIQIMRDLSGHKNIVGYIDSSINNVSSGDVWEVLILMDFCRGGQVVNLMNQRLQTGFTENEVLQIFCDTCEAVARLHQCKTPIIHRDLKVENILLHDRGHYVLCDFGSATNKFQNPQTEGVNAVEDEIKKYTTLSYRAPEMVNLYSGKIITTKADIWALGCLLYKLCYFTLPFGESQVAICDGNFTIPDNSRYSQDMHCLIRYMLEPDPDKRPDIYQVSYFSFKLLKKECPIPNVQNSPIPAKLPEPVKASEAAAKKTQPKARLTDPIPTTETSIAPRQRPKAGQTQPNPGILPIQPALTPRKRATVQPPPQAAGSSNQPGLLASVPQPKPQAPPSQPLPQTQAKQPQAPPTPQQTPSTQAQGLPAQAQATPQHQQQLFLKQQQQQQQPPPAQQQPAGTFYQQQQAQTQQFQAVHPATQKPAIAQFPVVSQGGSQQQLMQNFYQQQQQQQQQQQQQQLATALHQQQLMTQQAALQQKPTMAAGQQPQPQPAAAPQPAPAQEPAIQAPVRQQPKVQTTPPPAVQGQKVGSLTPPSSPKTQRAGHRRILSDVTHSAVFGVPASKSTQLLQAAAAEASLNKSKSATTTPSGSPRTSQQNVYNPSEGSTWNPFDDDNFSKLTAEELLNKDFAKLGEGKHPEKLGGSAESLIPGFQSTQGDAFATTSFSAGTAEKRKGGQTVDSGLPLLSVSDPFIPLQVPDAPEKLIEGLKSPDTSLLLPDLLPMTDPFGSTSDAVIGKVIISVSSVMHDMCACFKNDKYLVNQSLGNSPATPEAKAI
The experiment in a line: HEK281 cell-based assay (phospho-mu2 Western blot in transfected HEK293F cells). The note with it: HEK293F cells transfected with human AAK1 and AP2M1, 3 hours, read-out: CBA IC50. On the procedure: HEK293F cells were cultured in media containing DMEM (Gibco, cat. #11965), 10% FBS (SAFC Biosciences, cat. #12103C), 1×GPS (glutamine, penicillin and streptomycin). On day one, cells were plated on a 10 cm dish so that they are ˜80% confluent at time of transfection. Roughly 12 million cells were in a 10 cm dish at time of transfection. On day two, each dish was transfected with 48 ug DNA and 144 ul Lipofectamine 2000 (Invitrogen, cat.#11668-019). The DNA was comprised of a mixture (per 10 cm dish) containing 3 ug AAK1/HA/pIRES (full length human, NCBI accession no. NP_055726.2), 45 μg Flag/AP2MI/pcDNA (full length human), and 1.5 ml OPTI-MEM. The Lipofectamine 2000 is made up of a mixture (per 10 cm dish) containing 144 μl Lipofectamine 2000 and 1.5 ml OPTI-MEM. Each mixture was transferred to individual 15 ml tubes and incubated at room temperature for 5 minutes, and then the two mixes were combined and incubated at room temperature for 20 minutes. Growth media was then aspirated from each 10 cm plate and replaced with 10 ml of DMEM+10% FBS (no GPS). Finally, 3 ml DNA/Lipofectamine mix was added to each 10 cm dish and mix gently followed by incubate of plate overnight at 37° C. and 5% CO2.
On day three, compounds were diluted in 100% DMSO at 1000× final concentration, followed by 3-fold serial dilutions for a total of 5 concentrations tested. Four compounds were tested per 10 cm dish. One ul of each compound dilution was then pipetted into a deep-well, 96-well plate, followed by addition of 500 μl DMEM+0.5% FBS into each well for a 2× final concentration of each compound. Cells were resuspended in a 10 cm dish by simple pipetting (HEK293 cells come off the plate that easy at this point) and then transferred to a 50 ml conical tube and pelleted by centrifugation at 1000 rpm for 5 min. Cell pellets were then resuspended in 2.75 ml DMEM+0.5% FBS per 10 cm dish and 100 μl of cell suspension transferred into each well of 96-well TC plate. Finally, 100 μl of 2× compound diluted in DMEM+0.5% FBS was then added into wells containing cell suspension for a 1× final concentration. Plates were then incubated at 37° C. and 5% CO2 for 3 hours followed by transferring of cell suspensions from each well into 12-tube PCR strips. The PCR strips were spun in a tip rack at 1000 rpm for 5 minutes to pellet cells and media was then removed by pipetting without disturbing the cell pellet.
To prepare for Western Blot analysis, cell pellets were resuspend in 40 ul 1×LDS-PAGE sample buffer (Invitrogen, cat.# NP0008)+2× Halt phophatase and protease inhibitor cocktail (Thermo Scientific, cat.#1861284), followed by sonicating each with microtip sonicator set at 5 for 8-10 seconds. Five ul of 10× NuPage Sample Reducing Agent (with […]) was to each sample followed by heat denaturing at 70 C for 10 min on PCR machine. A total of 10 μl per sample was loaded into each lane of a 4-20% Tris-Glycine Criterion 26-well gel (Biorad, cat.#345-0034) for the phospho-mu2 blot and 10 μl per lane in a 4-12% Bis-Tris (+MES buffer) NuPAGE 26-well gel (Invitrogen, cat.# WG1403BX10) for the mu2 blot. For controls, 2 ng of phospho-mu2 or 20 ng mu2/Flag proteins were loaded in the last well of each gel. After SDS-PAGE, samples on each gel were transferred to PVDF membrane using an iBlot and membranes were blocked for one hour in TBST+5% milk, followed by wash 3× for 5-10 min with TBST. Criterion gels were probed with rabbit anti-phospho-mu2 (1:5000; a rabbit polyclonal antibody produced by New England Peptide and affinity purified at Lexicon) in TBST+5% BSA, whereas, NuPAGE gels were probed with mouse anti-Flag (1:500; Sigma, cat.# F1804) in TBST+5% milk, and these primary antibodies were incubated overnight at 4° C. on a rocker. […]
Background: A western blot detects proteins with antibodies after separation by electrophoresis.

The next assay deals with PC12 cells. The following applies: Kuai et al. 2011; cited from earlier work.

What is called IC50 is the midpoint of a concentration-inhibition curve.

Structures are written as SMILES. Like-named read-outs stand apart in the source and are kept apart here. Some results are limits rather than exact numbers.

T1 sequence (Q2M2I8 1-863 isoform Q2M2I8-2): as above

For `COc1nc(C)ccc1-c1cnn2ccc(-c3ccn(CCC(F)(F)F)c(=O)c3)nc12` [4-(3-(2-methoxy-6-methylpyridin-3-yl)pyrazolo[1,5-a]pyrimidin-5-yl)-1-(3,3,3-trifluoropropyl)pyridin-2(1H)-one], the IC50 in assay [1] (class symbols) is not above 100 nM; on AAK1 (class symbols), not above 10 nM. As for `COc1ncccc1-c1cnn2ccc(-c3ccn(CCN4CCOCC4)c(=O)c3)nc12` [4-(3-(2-methoxypyridin-3-yl)pyrazolo[1,5-a]pyrimidin-5-yl)-1-(2-morpholinoethyl)pyridin-2(1H)-one], the IC50 (in assay [1] (class symbols); at AAK1 (class symbols)) was not above 10 nM in each case. As to `COc1ncccc1-c1cnn2ccc(-c3ccn(CCC(F)(F)F)c(=O)c3)nc12` [4-(3-(2-methoxypyridin-3-yl)pyrazolo[1,5-a]pyrimidin-5-yl)-1-(3,3,3-trifluoropropyl)pyridin-2(1H)-one], the IC50 (in assay [1] (class symbols); on AAK1 (class symbols)) was not above 10 nM each time.

Regarding `COc1ccc(F)cc1-c1cnn2ccc(-c3ccn(CCC(F)(F)F)c(=O)c3)nc12` [4-(3-(5-fluoro-2-methoxyphenyl)pyrazolo[1,5-a]pyrimidin-5-yl)-1-(3,3,3-trifluoropropyl)pyridin-2(1H)-one], the IC50 was not above 100 nM in assay [1] (class symbols) and not above 10 nM on AAK1 (class symbols). For the compound `COc1ccc(F)cc1-c1cnn2ccc(-c3ccn(CC(C)C)c(=O)c3)nc12` [4-(3-(5-fluoro-2-methoxyphenyl)pyrazolo[1,5-a]pyrimidin-5-yl)-1-isobutylpyridin-2(1H)-one], the IC50 (in assay [1] (class symbols); on AAK1 (class symbols)) was not above 10 nM each time. Take `COc1ccc(F)cc1-c1cnn2ccc(-c3ccn(CCC(C)C)c(=O)c3)nc12` [4-(3-(5-fluoro-2-methoxyphenyl)pyrazolo[1,5-a]pyrimidin-5-yl)-1-isopentylpyridin-2(1H)-one]: the IC50 (in assay [1] (class symbols); at AAK1 (class symbols)) was not above 10 nM throughout. On to `COc1ncc(F)cc1-c1cnn2ccc(-c3ccn(CCC(F)(F)F)c(=O)c3)nc12` [4-(3-(5-fluoro-2-methoxypyridin-3-yl)pyrazolo[1,5-a]pyrimidin-5-yl)-1-(3,3,3-trifluoropropyl)pyridin-2(1H)-one], for which the IC50 (in assay [1] (class symbols); at AAK1 (class symbols)) was not above 10 nM each time. As for `COc1ncc(F)cc1-c1cnn2ccc(-c3ccn(CCC(C)C)c(=O)c3)nc12` [4-(3-(5-fluoro-2-methoxypyridin-3-yl)pyrazolo[1,5-a]pyrimidin-5-yl)-1-isopentylpyridin-2(1H)-one], the IC50 (in assay [1] (class symbols); on AAK1 (class symbols)) was not above 10 nM each time. As for `CC(C)CCn1ccc(-c2ccn3ncc(Br)c3n2)cc1=O` [4-(3-bromopyrazolo[1,5-a]pyrimidin-5-yl)-1-isopentylpyridin-2(1H)-one], the IC50 (in assay [1] (class symbols); on AAK1 (class symbols)) was not above 10 nM throughout. As for `CC(C)CCn1ccc(-c2ccn3ncc(Cl)c3n2)cc1=O` [4-(3-chloropyrazolo[1,5-a]pyrimidin-5-yl)-1-isopentylpyridin-2(1H)-one], the IC50 in assay [1] (class symbols) is not above 100 nM; on AAK1 (class symbols), not above 10 nM. In the case of `CC(C)CCn1ccc(-c2ccn3ncc(I)c3n2)cc1=O` [4-(3-iodopyrazolo[1,5-a]pyrimidin-5-yl)-1-isopentylpyridin-2(1H)-one], the IC50 (in assay [1] (class symbols); on AAK1 (class symbols)) was not above 10 nM in each case. With `COc1ncccc1-c1cnn2ccc(-c3ccnc(OC(C)C)c3)nc12` [5-(2-isopropoxypyridin-4-yl)-3-(2-methoxypyridin-3-yl)pyrazolo[1,5-a]pyrimidine], the IC50 was not above 100 nM in assay [1] (class symbols) and not above 10 nM on AAK1 (class symbols). On to `COC(=O)[C@@]1(O)C[C@H]2O[C@]1(C)n1c3ccccc3c3c4c(c5c6ccccc6n2c5c31)C(=O)NC4` [K252a], for which, in the assay with PC12 cells, the “Effect on Neuregulin-1 induced neurite outgrowth” value is on record as “potentiation of Neuregulin-1 induced neurite outgrowth”. For the compound `COc1ncccc1-c1cnn2ccc(C3=CCN(C(=O)OC(C)C)CC3)nc12` [isopropyl 4-(3-(2-methoxypyridin-3-yl)pyrazolo[1,5-a]pyrimidin-5-yl)-5,6-dihydropyridine-1(2H)-carboxylate], the IC50 (in assay [1] (class symbols); at AAK1 (class symbols)) was not above 10 nM throughout.

On to `COc1ncccc1-c1cnn2ccc(C3CCN(C(=O)OC(C)C)CC3)nc12` [isopropyl 4-(3-(2-methoxypyridin-3-yl)pyrazolo[1,5-a]pyrimidin-5-yl)piperidine-1-carboxylate], for which the IC50 in assay [1] (numeric bounds) is more than 300 nM; on AAK1 (class symbols), not above 10 nM. `CC(C)OC(=O)N(C)CCCc1ccn2nccc2n1` [isopropyl methyl(3-(pyrazolo[1,5-a]pyrimidin-5-yl)propyl)carbamate]: the IC50 in assay [1] (numeric bounds) was more than 100 nM; on AAK1 (numeric bounds) it was more than 300 nM.
